Assays:
[1] = Octanol/buffer partition coefficient (log D7.4); assay type: physicochemical; conditions: n-octanol / pH 7.4 phosphate buffer, read-out: log D at pH 7.4
Procedure: In a single incubation, 15 μL of a 10 mM DMSO solution of each test article was added to test tubes, which contained 0.75 mL of n-octanol and 0.75 mL of pH 7.4 phosphate buffer. Testosterone was also introduced to each tube as an internal control, also at a dosing concentration of 100 μM. These samples were gently mixed on a benchtop rotator for 1 hour at room temperature. The tubes were then removed from the rotator and the aqueous and organic phases were allowed to separate for 1 hour. […] As a methods control, the log D of testosterone was also measured at a satisfactory value.

[2] = test system: New Zealand White rabbits; experiment: Phenol-induced chronic model of glaucoma, IOP; assay type: in vivo, rabbit
Text: For these efficacy studies methods were followed as described in (Jacob et al, A promising drug candidate for the treatment of glaucoma based on a P2Y6-receptor agonist, Purinergic Signal. 2018 September; 14 (3): 271-284). In all studies, male New Zealand White rabbits were acclimatized for one week before the study. Animals were given food and water ad libitum. Body weights of rabbits ranged from 2 to 3 kg. Animals were trained for the IOP measurement procedure during the acclimation period in order to reduce stress and obtaining more accurate measurements during the study. IOP measurements were taken using the Icare® TONOVET Plus tonometer. […] The technique of use of the […] tonometer in rabbits was described previously (Gloe et al, Validation of the Icare® TONOVET Plus Rebound Tonometer in Normal Rabbit Eyes, Exp Eye Res. 2019 August; 185:107698). IOP readings are obtained only when the tonometer is held an appropriate distance and in the correct plane relative to the ocular surface. Green light appears when the orientation is correct, thereby minimizing operator errors. […] IOP was measured daily after phenol injection and IOP doubled in 8 days after phenol injection. […] IOP readings were taken on mornings of days 8 to 12 before compound application and 0.5 and 1 hour after morning application. […]

[3] = Stability in buffer, plasma, and blood (LC-MS/MS); assay type: in vitro ADME, human; parameters: half-life: dose or concentration left out as unconfirmed
Procedure: Stability in buffer, plasma, and blood. Study was conducted by Absorption Systems. Studies were carried out in pH 7.4 phosphate buffer, mixed-gender human plasma (Lot #HMN330460), and mixed-gender human whole blood (Lot #HMN 381096). […] The plasma and blood were obtained from BioIVT and collected on sodium heparin. They were adjusted to pH 7.4 prior to initiating the experiments. […] Aliquots of the DMSO solution were dosed into 1 mL of matrix, which had been pre-warmed to 37° C., at a final concentration of […]. The vials were kept in a benchtop Thermomixer® for the duration of the experiment. Aliquots (100 μL) were taken at each time point (0, 15, 30, 60, and 120 minutes) and added to 96-well plates, which had been pre-filled with 300 μL of acetonitrile (ACN). Samples were stored at 4° C. until the end of the experiment. After the final time point was sampled, the plate was mixed and then centrifuged at 3,000 rpm for 10 minutes. Aliquots of the supernatant were removed, diluted 1:1 into distilled water, and analyzed by LC-MS/MS (Table 21). The peak area response ratio to internal standard (PARR) was compared to the PARR at time 0 to determine the percent of test article remaining at each time point. Half-lives were calculated using GraphPad software, fitting to a single-phase exponential decay equation.

[4] = Solubility Assay #3, qualitative solubility in borate and citrate buffers; assay type: physicochemical; conditions: borate and citrate buffers at a series of pH values
[5] = Solubility Assay #1, equilibrium solubility in pH 7.4 aqueous buffer; conditions: pH 7.4 phosphate buffer, thermodynamic from solid
[6] = biological target: ROCK2 (Homo sapiens (Human), UniProt O75116); experiment: ROCK2 ADP-Glo kinase enzyme inhibition assay; assay type: biochemical; conditions: Exp #3; read-out: ROCK2 IC50(Exp #3)
Chain of ROCK2 (O75116 whole entry): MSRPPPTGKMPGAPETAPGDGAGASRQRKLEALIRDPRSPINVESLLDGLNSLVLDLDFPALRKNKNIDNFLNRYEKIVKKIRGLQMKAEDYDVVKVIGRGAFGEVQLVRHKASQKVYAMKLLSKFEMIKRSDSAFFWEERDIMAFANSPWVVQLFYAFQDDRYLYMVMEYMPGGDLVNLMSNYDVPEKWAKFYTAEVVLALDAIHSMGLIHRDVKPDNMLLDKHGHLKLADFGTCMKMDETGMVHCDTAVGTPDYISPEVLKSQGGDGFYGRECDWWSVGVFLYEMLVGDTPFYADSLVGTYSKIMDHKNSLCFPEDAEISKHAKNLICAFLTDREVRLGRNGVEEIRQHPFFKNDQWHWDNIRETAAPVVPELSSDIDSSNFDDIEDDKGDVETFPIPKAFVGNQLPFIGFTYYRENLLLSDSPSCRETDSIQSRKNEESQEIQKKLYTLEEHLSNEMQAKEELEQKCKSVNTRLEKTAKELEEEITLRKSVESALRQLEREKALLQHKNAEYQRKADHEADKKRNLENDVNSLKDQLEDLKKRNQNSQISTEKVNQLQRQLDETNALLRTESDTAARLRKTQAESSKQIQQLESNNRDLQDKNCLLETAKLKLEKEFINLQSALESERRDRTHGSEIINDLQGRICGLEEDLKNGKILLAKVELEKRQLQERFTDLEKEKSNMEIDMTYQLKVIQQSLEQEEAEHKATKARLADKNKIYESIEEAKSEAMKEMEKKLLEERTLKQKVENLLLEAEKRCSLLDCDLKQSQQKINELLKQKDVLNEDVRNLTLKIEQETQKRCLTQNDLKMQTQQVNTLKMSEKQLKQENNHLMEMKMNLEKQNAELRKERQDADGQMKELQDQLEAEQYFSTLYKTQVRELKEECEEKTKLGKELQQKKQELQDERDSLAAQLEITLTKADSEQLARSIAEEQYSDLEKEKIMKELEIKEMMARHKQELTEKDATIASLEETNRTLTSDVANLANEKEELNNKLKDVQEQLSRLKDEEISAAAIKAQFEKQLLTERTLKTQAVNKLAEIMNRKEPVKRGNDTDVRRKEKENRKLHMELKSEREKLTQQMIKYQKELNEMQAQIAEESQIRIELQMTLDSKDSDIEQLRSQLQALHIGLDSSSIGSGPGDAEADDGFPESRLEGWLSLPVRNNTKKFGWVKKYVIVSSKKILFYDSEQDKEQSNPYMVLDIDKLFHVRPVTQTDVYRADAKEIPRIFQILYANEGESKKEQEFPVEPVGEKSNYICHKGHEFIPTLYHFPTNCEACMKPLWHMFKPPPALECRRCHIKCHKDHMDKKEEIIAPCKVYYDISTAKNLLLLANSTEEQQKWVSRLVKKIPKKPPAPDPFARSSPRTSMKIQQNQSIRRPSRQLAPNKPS
Procedure: We measured ROCK and PKA kinase enzyme activity inhibition by compounds using commercially available ROCK1 (Promega Corporation, cat #V9581), ROCK2 (Promega, cat #V4045), and PKA kinase (Promega, cat #V4247) ADP-Glo™ assay kits. ADP-Glo™ Kinase Assay is a luminescent ADP detection assay that provides a homogeneous method to measure kinase activity by quantifying the amount of ADP produced during a kinase reaction. The assay is performed in two steps. First, after the kinase reaction, an equal volume of ADP-Glo™ Reagent is added to terminate the kinase reaction and deplete the remaining ATP. Second, the Kinase Detection Reagent is added to simultaneously convert ADP to ATP and allow the newly synthesized ATP to be measured using a luciferase/luciferin reaction. The light generated is measured using a luminometer. A complete protocol is included with the kits and is also available at the Promega website. The assay is briefly described below. • 1. Diluted enzyme, substrate, ATP, and compounds (inhibitors) in Kinase Buffer (40 mM Tris, 7.5, 20 mM MgCl2, 0.1 mg/ml BSA, 50 μM DTT). • 2. Added 1 μl of inhibitor, 2 μl of enzyme and 2 μl of substrate/ATP mix to the wells of 384-well low volume nonbinding assay plate A series of three-fold dilution of inhibitor was prepared and assayed for each inhibitor. • 3. Incubated at room temperature for 60 minutes. • 4. Added 5 μl of ADP-Glo™ Reagent. • 5. Incubated at room temperature for 60 minutes. • 6. Added 10 μl of Kinase Detection Reagent • 7. Incubated at room temperature for 30 minutes.
Recorded luminescence (Integration time 1 second) using a plate-based luminometer.
Calculated Percent Enzyme Activity: First subtract the signal of the negative control (no enzyme and no inhibitor) from each sample's signal. Then use the mean relative light units (RLU) values for the 0% kinase activity (neither inhibitor nor enzyme) and the 100% kinase activity (no compound) to calculate the other percent enzyme activities remaining in the presence of the different dilutions of inhibitor.
Inhibitor stock solutions of 10 mM are made in DMSO and stored at −20° C. Dilutions were made in assay buffer immediately before use.

In the case of `Cl.Cl.NCC(C(=O)Nc1ccc2cnccc2c1)c1ccc(B(O)O)cc1` (stereo not drawn) [Compound 10•2HCl], the logD [1] is reported as 0.822, the “Effect on IOP after first application” value ([2]; 1 mg/ml (2.34 mM) in saline, day 8 after phenol injection) is reported as “decrease of IOP to normal levels within 1 hour after application” and the “Effect of subsequent twice daily application on IOP” value ([2]; 1 mg/ml twice daily, days 8 to 12) is reported as “maintained normal IOP”. The “Percent Remaining” value ([3]; Buffer pH 7.4, 37° C., 0 min) was 100%, the “Percent Remaining” value ([3]; Buffer pH 7.4, 37° C., 15 min) was 102% and the “Percent Remaining” value ([3]; Buffer pH 7.4, 37° C., 30 min) was 97%. For the same compound, the “Percent Remaining” value ([3]; Buffer pH 7.4, 37° C., 60 min) was 101%, the “Percent Remaining” value ([3]; Buffer pH 7.4, 37° C., 120 min) was 93% and the half-life ([3]; both sexes, pH 7.4, human Plasma, 37° C.) was > 2 h. The half-life ([3]; both sexes, pH 7.4, human whole Blood, 37° C.) was > 2 h, the “Percent Remaining” value ([3]; human Plasma, 37° C., 0 min) was 100% and the “Percent Remaining” value ([3]; human Plasma, 37° C., 15 min) was 82%. For the same compound, the “Percent Remaining” value ([3]; human Plasma, 37° C., 30 min) was 106%, the “Percent Remaining” value ([3]; human Plasma, 37° C., 60 min) was 83% and the “Percent Remaining” value ([3]; human Plasma, 37° C., 120 min) was 91%. The “Percent Remaining” value ([3]; human whole Blood, 37° C., 0 min) was 100%, the “Percent Remaining” value ([3]; human whole Blood, 37° C., 15 min) was 92% and the “Percent Remaining” value ([3]; human whole Blood, 37° C., 30 min) was 87%. For the same compound, the “Percent Remaining” value ([3]; human whole Blood, 37° C., 60 min) was 100%, the “Percent Remaining” value ([3]; human whole Blood, 37° C., 120 min) was 115% and the half-life ([3]; pH 7.4 phosphate buffer, Buffer pH 7.4, 37° C.) was > 2 h. For the same compound, the “pH at which precipitation occurs” value [4] was ~8.5, the solubility [5] was 39.1 µM and the IC50 [6] was 28 nM.

From patent US12479866B2, “Boron-containing rho kinase inhibitors” (Percipiad, Inc., priority 2019, dated 2025)
